Source: ChEMBL document CHEMBL1201862, “PubChem BioAssay data set” (2004)
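48-hour exposure; five concentrations; linearly interpolated endpoints. GI50 is the concentration that inhibits growth by half.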 The source made the active and inactive calls. No stated cut-off is given here; in the data, active = GI50 up to about 1.1 µM and inactive = higher.

Columns and labels:
Assay in all cases: growth of human tumour cells (NCI), 48 h
MOLT-4 = test system: MOLT-4
UACC-257 = test system: UACC-257
UACC-62 = test system: UACC-62
786-0 = test system: 786-0
OVCAR-8 = test system: OVCAR-8
SW-620 = test system: SW-620
OVCAR-3 = test system: OVCAR-3
ACHN = test system: ACHN
NCI-H460 = test system: NCI-H460
M14 = test system: M14
EKVX = test system: EKVX
MDA-MB-231 = test system: MDA-MB-231
T47D = test system: T47D
SN12C = test system: SN12C
Malme-3M = test system: Malme-3M
HOP-62 = test system: HOP-62
LOX IMVI = test system: LOX IMVI
HCT-116 = test system: HCT-116
SNB-75 = test system: SNB-75

Measured: GI50

OC1COC(OCc2ccccc2)C(O)C1O (stereo not given)
inactive: MOLT-4 > 100 µM | UACC-257 > 100 µM | UACC-62 > 100 µM | 786-0 > 100 µM | OVCAR-8 > 100 µM | SW-620 > 100 µM | OVCAR-3 > 100 µM | ACHN > 100 µM | NCI-H460 > 100 µM | M14 > 100 µM | EKVX > 100 µM | MDA-MB-231 > 100 µM | T47D > 100 µM | SN12C > 100 µM | Malme-3M > 100 µM | HOP-62 > 100 µM | LOX IMVI > 100 µM | HCT-116 > 100 µM

NNC(=O)Cn1c2ccc(Br)cc2c2nc3ccccc3nc21
inactive: MOLT-4 11.7 µM | UACC-257 76.4 µM | UACC-62 56.5 µM | 786-0 17.9 µM | SNB-75 > 100 µM | OVCAR-8 54.3 µM | SW-620 > 100 µM | OVCAR-3 23.2 µM | ACHN 36.6 µM | M14 > 100 µM | EKVX 9.59 µM | MDA-MB-231 > 100 µM | T47D > 100 µM | SN12C > 100 µM | HOP-62 19.8 µM

COc1cc2c(cc1OC)C1CN3CCCC3C(O)C1c1cc(OC)c(OC)cc1-2 (stereo not given)
inactive: MOLT-4 > 100 µM | UACC-257 > 100 µM | UACC-62 > 100 µM | 786-0 > 100 µM | OVCAR-8 > 100 µM | SW-620 > 100 µM | ACHN > 100 µM | NCI-H460 > 100 µM | M14 > 100 µM | EKVX > 100 µM | MDA-MB-231 > 100 µM | T47D 15.3 µM | SN12C > 100 µM | Malme-3M > 100 µM | HOP-62 40.2 µM | LOX IMVI > 100 µM | HCT-116 > 100 µM

Cc1cc(S(=O)(=O)N/C(=C(\C#N)C(=O)c2ccccc2)[n+]2ccc(N(C)C)cc2)c([S-])cc1Cl
inactive: MOLT-4 60.1 µM | UACC-257 > 100 µM | UACC-62 > 100 µM | 786-0 > 100 µM | OVCAR-8 > 100 µM | OVCAR-3 > 100 µM | ACHN > 100 µM | NCI-H460 > 100 µM | M14 > 100 µM | EKVX 32 µM | MDA-MB-231 > 100 µM | T47D > 100 µM | SN12C > 100 µM | Malme-3M 20.9 µM | HOP-62 > 100 µM | HCT-116 37.2 µM

O=C1CC(=O)c2c(N3CCCC3)sc(N3CCCC3)c21
inactive: MOLT-4 59 µM | UACC-257 > 100 µM | UACC-62 > 100 µM | 786-0 > 100 µM | SNB-75 > 100 µM | OVCAR-8 > 100 µM | SW-620 > 100 µM | OVCAR-3 > 100 µM | ACHN > 100 µM | NCI-H460 > 100 µM | M14 > 100 µM | EKVX > 100 µM | T47D > 100 µM | SN12C > 100 µM | Malme-3M > 100 µM | HOP-62 > 100 µM | LOX IMVI > 100 µM | HCT-116 > 100 µM

COc1ccc2c3c1O[C@H]1C(O)CCC4(O)[C@@H](C2)NCC[C@]314 (stereo not given in full)
inactive: MOLT-4 > 100 µM | UACC-257 > 100 µM | UACC-62 > 100 µM | 786-0 > 100 µM | OVCAR-8 > 100 µM | SW-620 > 100 µM | OVCAR-3 > 100 µM | ACHN > 100 µM | M14 > 100 µM | EKVX > 100 µM | MDA-MB-231 > 100 µM | T47D > 100 µM | SN12C > 100 µM | Malme-3M > 100 µM | HOP-62 > 100 µM | LOX IMVI > 100 µM | HCT-116 > 100 µM

Cc1ccc2c(=O)c(C(=O)NNC(=S)NC3CCCCC3)c[nH]c2n1
inactive: MOLT-4 32.7 µM | UACC-257 > 100 µM | UACC-62 62.4 µM | 786-0 > 100 µM | OVCAR-8 > 100 µM | SW-620 40.6 µM | OVCAR-3 71.8 µM | ACHN 96.4 µM | NCI-H460 80 µM | M14 53.2 µM | EKVX 68.9 µM | MDA-MB-231 52.7 µM | T47D 46.9 µM | SN12C 78.7 µM | Malme-3M 65.8 µM | HOP-62 68.1 µM | LOX IMVI 51.3 µM | HCT-116 99.5 µM

CSC(SC)=C1C(=O)NN=C1C
inactive: MOLT-4 > 100 µM | UACC-257 > 100 µM | UACC-62 > 100 µM | 786-0 > 100 µM | SW-620 > 100 µM | OVCAR-3 > 100 µM | ACHN > 100 µM | NCI-H460 > 100 µM | M14 > 100 µM | EKVX > 100 µM | MDA-MB-231 > 100 µM | T47D > 100 µM | SN12C > 100 µM | Malme-3M > 100 µM | HOP-62 > 100 µM | LOX IMVI > 100 µM | HCT-116 > 100 µM

CC(=O)OCC1OC(O[C@H]2C=C[C@@H](C(=O)OCc3ccccc3)n3c(=O)n(-c4ccccc4)c(=O)n32)C(OC(C)=O)C(OC(C)=O)C1OC(C)=O (stereo not given in full)
inactive: MOLT-4 2.09 µM | UACC-257 1.92 µM | UACC-62 1.59 µM | 786-0 1.6 µM | SNB-75 10.9 µM | OVCAR-8 2.48 µM | SW-620 1.77 µM | OVCAR-3 1.79 µM | ACHN 1.71 µM | NCI-H460 1.58 µM | M14 1.78 µM | EKVX 1.95 µM | MDA-MB-231 1.89 µM | T47D 2.62 µM | SN12C 1.94 µM | HOP-62 5.01 µM | LOX IMVI 1.2 µM | HCT-116 2.22 µM

Cc1cc(Cl)ccc1NC(=O)/C(Cl)=C(/Cl)C(=O)O
inactive: UACC-257 19.7 µM | UACC-62 21.5 µM | 786-0 23.1 µM | SNB-75 29.9 µM | OVCAR-8 17.7 µM | SW-620 21 µM | OVCAR-3 18.4 µM | ACHN 19.3 µM | NCI-H460 > 100 µM | M14 28.4 µM | EKVX 19.1 µM | MDA-MB-231 21.7 µM | T47D 22.8 µM | SN12C 18.1 µM | HOP-62 22.2 µM | LOX IMVI 19.9 µM | HCT-116 19 µM

CCOC1Oc2ccccc2-c2nc(N)ncc21 (stereo not given)
inactive: MOLT-4 52.5 µM | UACC-257 55.2 µM | UACC-62 29.1 µM | 786-0 58.7 µM | SNB-75 34 µM | OVCAR-8 61.9 µM | SW-620 46.3 µM | OVCAR-3 57 µM | ACHN 59.4 µM | NCI-H460 24.9 µM | M14 56.8 µM | EKVX 45.1 µM | MDA-MB-231 99.3 µM | T47D 51.3 µM | SN12C 77.1 µM | LOX IMVI 27 µM | HCT-116 36.5 µM

CC(C(=O)c1ccncc1)c1ccccn1 (stereo not given)
inactive: UACC-257 > 100 µM | UACC-62 > 100 µM | 786-0 > 100 µM | OVCAR-8 > 100 µM | SW-620 > 100 µM | OVCAR-3 > 100 µM | ACHN > 100 µM | NCI-H460 > 100 µM | M14 > 100 µM | EKVX > 100 µM | MDA-MB-231 > 100 µM | T47D > 100 µM | SN12C > 100 µM | Malme-3M > 100 µM | HOP-62 > 100 µM | LOX IMVI > 100 µM | HCT-116 > 100 µM
